Assay results as given in ChEMBL document CHEMBL4627361, “Decades-old renin inhibitors are still struggling to find a niche in antihypertensive therapy. A fleeting look at the old and the promising new molecules” (Bioorg Med Chem, 2020).
Values after ≈ are worked out from the molar mass of the structure shown.

Tests used:
[1] = Half life in human; assay type: ADME
[2] = Aqueous solubility of compound in pH 7.4; assay type: physicochemical
[3] = Protein binding in human plasma; assay type: ADME, cell-free; conditions: read-out: PPB (converted)
[4] = Octanol/water partition co-efficient, log P of compound at pH 7.4; assay type: physicochemical

- half-life [1]: 24 h
- solubility [2]: 350 mg/mL (≈ 634 mM)
- fraction unbound [3]: 0.505
- logD [4]: 2.45
SMILES: COCCCOc1cc(C[C@@H](C[C@H](N)[C@@H](O)C[C@H](C(=O)NCC(C)(C)C(N)=O)C(C)C)C(C)C)ccc1OC
